Test results published in publication PMC8252455, “Prediction of a clinically effective dose of THY1773, a novel V 1B receptor antagonist, based on preclinical data” (Biopharmaceutics & Drug Disposition, 2021).

Target: T1, human V1B receptor (Homo sapiens, UniProt P47901)
T1 construct: expressed in transfected cells; host or cells: 1321-N1 cells (membranes)
T1 sequence (P47901 1-424): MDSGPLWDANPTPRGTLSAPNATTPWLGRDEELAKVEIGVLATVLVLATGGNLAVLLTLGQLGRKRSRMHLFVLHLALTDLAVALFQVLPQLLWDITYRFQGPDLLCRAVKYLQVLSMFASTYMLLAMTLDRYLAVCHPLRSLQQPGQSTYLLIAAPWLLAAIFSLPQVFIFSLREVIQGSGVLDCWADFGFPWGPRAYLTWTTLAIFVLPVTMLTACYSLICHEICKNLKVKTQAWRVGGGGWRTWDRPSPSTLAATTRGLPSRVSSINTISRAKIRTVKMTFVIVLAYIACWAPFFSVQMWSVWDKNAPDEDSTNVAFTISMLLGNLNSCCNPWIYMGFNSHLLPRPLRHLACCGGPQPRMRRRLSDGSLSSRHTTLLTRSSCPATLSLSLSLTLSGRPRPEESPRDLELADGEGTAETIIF
Test: In vitro [3H]AVP binding assay, membranes of 1321-N1 cells expressing human V1B receptor
Settings: 1321-N1 cell membranes, read-out: EC50 of RO model (Ki value for human V1B receptor binding inhibition)

CC(C)NC(=O)Cn1c(-c2cccc(Cl)c2)nn(-c2ccc(CCN3CCOCC3)cc2)c1=O [THY1773]
Ki: 3.51 nM
